Results reported in patent US9598716B2, “Destructible surfactants and uses thereof” (Waters Technologies Corporation, priority 2002, dated 2017).

Tests used:
trypsin = test: Trypsin activity assay (rate of hydrolysis of BAEE to BA, UV); type: biochemical; details: for Trypsin activity (%): 0.5 μg of trypsin in 50 mM ammonium bicarbonate, pH 7.9, no additive = 100
Method: Trypsin activity measurements were carried out by introducing 1 μg/ml of trypsin to 0.25 mM N-α-benzoyl-L-arginine ethyl ester (BAEE, pH 7.9) at room temperature. Changes in trypsin activity were plotted by measuring the rate of hydrolysis of BAEE to a UV active product, BA, at A 252 nm.

[1] = biological target: T1, horse skeletal muscle myoglobin (Equus caballus, UniProt P68082); test: Mass spectrometric detection of myoglobin treated with ALS or SDS (electrospray); details: 5 μM myoglobin with 0.1% surfactant; ALS degraded in 10% acetic acid for 16 hours
T1 construct: horse skeletal muscle myoglobin (Sigma. P/N M0630); purchased Sigma M0630; host or cells: horse skeletal muscle
Method: Mass spectrometric detection was performed on myoglobin using a Platform LC (Micromass, Manchester, UK) with constant infusion. A stock solution of 50 μM horse skeletal muscle myoglobin (Sigma. P/N M0630) was prepared in 50/50 20 mM ammonium acetate, pH 5.1/acetonitrile (v/v). A stock solution of 1% SDS and 1% ALS were also prepared in both 50/50 ammonium acetate/acetonitrile, and 40/40/10 ammonium acetate/acetonitrile/glacial acetic acid. The surfactant stock solutions were both prepared fresh, and allowed to sit for at least 16 hours. To 100 μL of each of the surfactant stock solutions was added 100 μL of myoglobin stock and 800 μL 50/50 ammonium acetate/acetonitrile. Each solution was then drawn into a 1 mL syringe and placed in a syringe pump (Harvard Instruments). The solution was infused into the mass spectrometer at a flow rate of 20 μL/min. Mass spectrometer settings were as follows:
Gas flow rate: 340 L/h; Source temperature: 100° C., Capillary voltage: 3.46 kV; Cone voltage: 25 V; Ion energy: 0.6; Scan rate: 3.0 sec/scan; Scan range: 250-1600 amu.

Lys-C = biological target: T2, Lys-C (Lysobacter enzymogenes, UniProt Q7M135); test: Comparative digestion of myoglobin with Lys-C; type: biochemical; details: with ALS, no observable digestion without ALS
T2 construct: purchased Roche Diagnostics
Method: (§1) Proteins (2-20 μM), indicated in Table 2, were solubilized in 50 mM NH4HCO3 or 0.1-0.25% (w/w) ALS before tryptic digestion. The trypsin to protein ratio used was 1-2%. The protein (˜17 μM) was solubilized with 8M urea or 0.25% ALS. After tryptic digestion, ALS was destroyed rapidly by addition of strong acid such as HCl or TFA. The by-products were removed by centrifugation prior to MS analysis. Protein digests were mass analyzed either by a MALDI.TOF mass spectrometer (M@LDI™ LR, Micromass UK Ltd) or separated by RP-HPLC (CapLC®, Waters Corporation) then interfaced to an orthogonal acceleration TOF mass spectrometer (LCT™, Micromass UK Ltd) via an electrospray ionization source.
(§2) Myoglobin comparative digestion was performed as in Example 3 (in the presence and absence of ALS), with the exchange of the following proteases for trypsin: • A. Asp-N (FIG. 4A) • B. Lys-C (FIG. 4B) • C. Glu-C (FIG. 4C) Digestions were performed for about 50 minutes. The enzymes were purchased from Roche Diagnostics. Analysis is shown in FIGS. 4A-4C, as indicated above. In each case, when no ALS was in the digestion solution, no observable digestion took place. However, with ALS, within about 50 minutes, the entire protein was consumed.

Glu-C = biological target: T3, Glu-C (Staphylococcus aureus, UniProt P0C1U8); test: Comparative digestion of myoglobin with Glu-C; type: biochemical; details: with ALS, no observable digestion without ALS
T3 construct: purchased Roche Diagnostics
Method: as §1, §2

[2] = pH 7
From the text: After the chemical reaction proceeds, the surfactant of the present invention involved in enhancing the chemical reaction can be degraded, e.g., by contact with an acidic solution.

T1 sequence (P68082 whole entry): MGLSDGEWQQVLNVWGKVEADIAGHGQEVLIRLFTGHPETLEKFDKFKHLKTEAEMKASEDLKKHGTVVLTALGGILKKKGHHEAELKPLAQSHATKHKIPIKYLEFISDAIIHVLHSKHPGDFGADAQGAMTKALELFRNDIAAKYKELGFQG
T2 sequence (Q7M135 whole entry): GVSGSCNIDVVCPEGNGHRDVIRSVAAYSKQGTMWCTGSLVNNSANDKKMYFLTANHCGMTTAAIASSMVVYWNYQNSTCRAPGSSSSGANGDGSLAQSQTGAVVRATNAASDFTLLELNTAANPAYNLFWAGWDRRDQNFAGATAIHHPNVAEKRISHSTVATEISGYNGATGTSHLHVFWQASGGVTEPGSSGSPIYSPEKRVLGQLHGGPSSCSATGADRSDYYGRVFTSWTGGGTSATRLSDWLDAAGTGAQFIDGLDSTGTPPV
T3 sequence (P0C1U8 69-336): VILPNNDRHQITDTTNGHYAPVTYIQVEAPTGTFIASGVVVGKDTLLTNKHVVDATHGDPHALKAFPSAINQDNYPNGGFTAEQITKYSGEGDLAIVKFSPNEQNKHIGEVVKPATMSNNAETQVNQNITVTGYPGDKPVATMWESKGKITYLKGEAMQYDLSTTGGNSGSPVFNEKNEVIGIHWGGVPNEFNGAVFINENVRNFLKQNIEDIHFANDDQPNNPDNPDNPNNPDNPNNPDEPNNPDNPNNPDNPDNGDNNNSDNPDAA

Compound	Trypsin activity (%) (trypsin; additive at 50%)	Trypsin activity (%) (trypsin; additive at 0.1%)	Trypsin activity (%) (trypsin; additive at 0.5%)	Myoglobin signal in electrospray mass spectrum [1]	other results
CC#N [Acetonitrile]	92				
CO [Methanol]	31				
CCCCCCCCCCCCOS(=O)(=O)[O-].[Na+] [SDS, sodium dodecylsulfate]		20	1	no signals due to myoglobin are observed	Effect on trypsin activity (in words) (trypsin; each of the percentages examined): inhibits trypsin activity
sodium 4-[(2-methyl-2 undecyl-1,3-dioxolan-4-yl)methyl]-1-propanesulfonate [ALS]		99	87	strong myoglobin signal	Time until the entire protein (myoglobin) was consumed (Lys-C): ≤ 50 min; Effect on trypsin activity (in words) (trypsin; ALS added to the trypsin solution containing SDS): increase in trypsin activity; Time until the entire protein (myoglobin) was consumed (Glu-C): ≤ 50 min; Stability of the surfactant [2]: stable
NC(N)=O [Urea]					Trypsin activity (%) (trypsin; additive at 2M): 85%; Trypsin activity (%) (trypsin; additive at 4M): 71%
